Laboratory results taken from US20100311714A1, “1H-IMIDAZO[4,5-c]QUINOLINONE COMPOUNDS” (priority 2009, published 2010).

Key:
[1] = target: T1, PI3K beta (Homo sapiens, UniProt P42338); assay: PI3K beta kinase assay (Kinase-Glo luminescence); assay type: biochemical; conditions: read-out: EPK_PI3Kbeta/IC50
T1 construct: for the full-length p110-b subunit are generated and fused by overlapping PCR; His tag (C); made in house; host or cells: baculovirus BV949; Tn5 (Trichoplusia ni) or TiniPro insect cells
Experimental: (§1) In a more preferred assay, the kinase reaction is performed in a final volume of 10 μL per well of a low volume non binding CORNING, 384 well black plate (Cat. No. #3676). The final concentrations of ATP and phosphatidyl inositol (PI) in the assay are 1 μM and 10 μg/mL respectively. The reaction is started by the addition of ATP.
(§2) The components of the assay are added per well as follows:
(§3) 50 nL test compounds in 90% DMSO per well, in columns 1-20, 8 concentrations (⅓ and 1/3.33 serial dilution step) in single. • Low control: […] of 90% DMSO in half the wells of columns 23-24 (0.45% in final). • High control: 50 nL of reference compound (e.g. compound of Example 7 in WO 2006/122806) in the other half of columns 23-24 (2.5 μM in final). • Standard: 50 nL of reference compound as just mentioned diluted as the test compounds in columns 21-22 • 20 mL ‘buffer’ are prepared per assay: • 200 μL of 1M TRIS HCl pH7.5 (10 mM in final) • 60 μL of 1M MgCl2 (3 mM in final) • 500 μL of 2M NaCl (50 mM in final) • 100 μL of 10% CHAPS (0.05% in final) • 200 μL of 100 mM DTT (1 mM in final) • 18.94 mL of nanopure water • 10 mL ‘PI’ are prepared per assay: • 200 μL of 1 mg/ml L-alpha-Phosphatidylinositol (Liver Bovine, Avanti Polar Lipids Cat. No. 840042C MW=909.12) prepared in 3% OctylGlucoside (10 μg/ml in final) • 9.8 mL of ‘buffer’ • 10 mL ‘ATP’ are prepared per assay: • 6.7 μL of 3 mM stock of ATP giving a final concentration of 1 μM per well • 10 mL of ‘buffer’ • 2.5 mL of each PI3K construct are prepared per assay in ‘PI’ with the following final concentration: • 10 nM PI3K alfa EMV B1075 • 25 nM beta EMV BV949 • 10 nM delta EMV BV1060 • 150 nM gamma EMV BV950 • 5 μL of ‘PI/PI3K’ are added per well. • 5 μl ‘ATP’ are added per well to start the reaction. • The plates are then incubated at room temperature for 60 minutes (alfa, beta, delta) or 120 minutes (gamma). • The reaction is terminated by the addition of 10 μL Kinase-Glo (Promega Cat. No. #6714). • The assay plates are read after 10 minutes in Synergy 2 reader (BioTek, Vermont USA) with an integration time of 100 milliseconds and sensitivity set to 191. • Output: The High control is around 60′000 counts and the Low control is 30′000 or lower • This luminescence assay gives a useful Z′ ratio between 0.4 and 0.7
PI3Kβ BV-949 p85(iSH2)-Gly linker-r 110b(full-length)-C-term His Tag
PI3K beta is purified in two chromatographic steps: immobilized metal affinity chromatography (IMAC) on a Ni Sepharose resin (GE Healthcare) and gel filtration (GFC) utilizing a Superdex 200 26/60 column (GE Healthcare). All buffers are chilled to 4° C. and lysis is performed chilled on ice. Column fractionation is performed rapidly at room temperature.
(§4) IC50 is determined by a four parameter curve fitting routine that comes along with “excel fit”. A 4 Parameter logistic equation is used to calculate IC50 values (IDBS XLfit) of the percentage inhibition of each compound at 8 concentrations (usually 10, 3.0, 1.0, 0.3, 0.1, 0.030, 0.010 and 0.003 μM). Alternatively, IC50 values are calculated using idbsXLfit model 204, which is a 4 parameter logistic model.

[2] = target: T2, PI3K delta (Homo sapiens, UniProt O00329); assay: PI3K delta kinase assay (Kinase-Glo luminescence); assay type: biochemical; conditions: read-out: EPK_PI3Kdelta/IC50
T2 construct: for the full-length p110-d subunit are generated and fused by overlapping PCR; His tag (C); made in house; host or cells: baculovirus BV1060; Tn5 (Trichoplusia ni) or TiniPro insect cells
Experimental: as §1, §2, §3
PI3Kδ BV-1060 p85(iSH2)-Gly Linker-p110d(Full-Length)-C-Term His Tag
PI3K delta is purified in three chromatographic steps: immobilized metal affinity chromatography on a Ni Sepharose resin (GE Healthcare), gel filtration utilizing a Superdex 200 26/60 column (GE Healthcare), and finally a anion exchange step on a Q-HP column (GE Healthcare). All buffers are chilled to 4° C. and lysis is performed chilled on ice. Column fractionation is performed rapidly at room temperature. Typically frozen insect cells are lysed in a hypertonic lysis buffer and applied to a prepared IMAC column. The resin is washed with 3-5 column volumes of lysis buffer, followed by 3-5 column volumes wash buffer containing 45 mM imidazole, and the target protein is then eluted with a buffer containing 250 mM imidazole. Fractions are analyzed by Coomassie stained SDS-PAGE gels, and fractions containing the target protein are pooled and applied to a prepared GFC column. Fractions from the GFC column are analyzed by Coomassie stained SDS-PAGE gels, and fractions containing the target protein are pooled. The pool from the GFC column is diluted into a low salt buffer and applied to a prepared Q-HP column. The column is washed with low salt buffer until a stable A280 baseline absorbance is achieved, and eluted using a 20 column volume gradient from 0 mM NaCl to 500 mM NaCl. Again, fractions from the Q-HP column are analyzed by Coomassie stained SDS-PAGE gels, and fractions containing the target protein are pooled. The final pool is dialyzed into a storage buffer containing 50% glycerol and stored at −20° C. The final pool is assayed for activity in the phosphoinostitol kinase assay. […]

[3] = target: T3, mTOR (Homo sapiens, UniProt P42345); assay: Biochemical assay for m-TOR by TR-FRET; conditions: read-out: EPK_mTOR/IC50
T3 construct: purchased Invitrogen Corporation (Carlsbad/Calif., USA) PV4753
Experimental: Biochemical Assay for m-TOR by TR-FRET.
Assay components are purchased from Invitrogen Corporation (Carlsbad/Calif., USA): GFP-4EBP1 (Cat. No. PV4759), Tb3+-α-p4EBP1 [pThr46] Antibody (Cat. No. PV4757), proprietary TR-FRET dilution buffer (Cat. No. PV3574), mTOR protein (Cat. No. PV4753).
50 nL of compound dilutions (final concentration of 10, 3.0, 1.0, 0.3, 0.1, 0.03, 0.01 and 0.003 μM) are dispensed onto black 384-well low volume non-binding polystyrene (Cat. No. NBS#3676, Corning, Lowell/Mass., USA). Then 5 μL of ATP (8 μM final concentration) and GFP-4EBP1 (400 nM final concentration) with 5 μL mTOR proteins (0.5 nM final concentration) are incubated at rt. The standard reaction buffer for the TR-FRET mTOR assay contained 50 mM HEPES pH 7.5, 10 mM MnCl2, 50 mM NaCl, 1 mM EGTA, 1 mM DTT. Reactions were stopped with 10 μL of a mixture of EDTA containing the Tb3+-α-p4EBP1[pT46] detection Ab (0.5 nM) in TR-FRET dilution buffer (proprietary to IVG). Plates are read 15 mins later in a Synergy2 reader using an integration time of 0.2 seconds and a delay of 0.1 seconds. Control for the 100% inhibition of the kinase reaction is performed by replacing the mTOR kinase by the standard reaction buffer. The control for the 0% inhibition is given by the solvent vehicle of the compounds (90% DMSO in H2O). A standard compound is used as a reference compound and included in all assay plates in the form of 16 dilution points in duplicate.

[4] = target: T4, PI3K alfa (Homo sapiens, UniProt P42336); assay: PI3K alpha kinase assay (Kinase-Glo luminescence); assay type: biochemical; conditions: read-out: EPK_PI3Kalfa/IC50
T4 construct: His tag (C); made in house; host or cells: baculovirus BV1075; Tn5 (Trichoplusia ni) or TiniPro insect cells
Experimental: as §1, §2, §3
Two different constructs, BV 1052 and BV 1075, are used to generate the PI3 Kinase α proteins for compound screening.
PI3K alpha is purified in three chromatographic steps: immobilized metal affinity chromatography on a Ni Sepharose resin (GE Healthcare, belonging to General Electric Company, Fairfield, Conn., USA), gel filtration utilizing a Superdex 200 26/60 column (GE Healthcare), and finally a cation exchange step on a SP-XL column (GE Healthcare). All buffers are chilled to 4° C. and lysis is performed chilled on ice. Column fractionation is performed rapidly at room temperature.
as §4

T3 sequence (P42345 1360-2549 limits assumed): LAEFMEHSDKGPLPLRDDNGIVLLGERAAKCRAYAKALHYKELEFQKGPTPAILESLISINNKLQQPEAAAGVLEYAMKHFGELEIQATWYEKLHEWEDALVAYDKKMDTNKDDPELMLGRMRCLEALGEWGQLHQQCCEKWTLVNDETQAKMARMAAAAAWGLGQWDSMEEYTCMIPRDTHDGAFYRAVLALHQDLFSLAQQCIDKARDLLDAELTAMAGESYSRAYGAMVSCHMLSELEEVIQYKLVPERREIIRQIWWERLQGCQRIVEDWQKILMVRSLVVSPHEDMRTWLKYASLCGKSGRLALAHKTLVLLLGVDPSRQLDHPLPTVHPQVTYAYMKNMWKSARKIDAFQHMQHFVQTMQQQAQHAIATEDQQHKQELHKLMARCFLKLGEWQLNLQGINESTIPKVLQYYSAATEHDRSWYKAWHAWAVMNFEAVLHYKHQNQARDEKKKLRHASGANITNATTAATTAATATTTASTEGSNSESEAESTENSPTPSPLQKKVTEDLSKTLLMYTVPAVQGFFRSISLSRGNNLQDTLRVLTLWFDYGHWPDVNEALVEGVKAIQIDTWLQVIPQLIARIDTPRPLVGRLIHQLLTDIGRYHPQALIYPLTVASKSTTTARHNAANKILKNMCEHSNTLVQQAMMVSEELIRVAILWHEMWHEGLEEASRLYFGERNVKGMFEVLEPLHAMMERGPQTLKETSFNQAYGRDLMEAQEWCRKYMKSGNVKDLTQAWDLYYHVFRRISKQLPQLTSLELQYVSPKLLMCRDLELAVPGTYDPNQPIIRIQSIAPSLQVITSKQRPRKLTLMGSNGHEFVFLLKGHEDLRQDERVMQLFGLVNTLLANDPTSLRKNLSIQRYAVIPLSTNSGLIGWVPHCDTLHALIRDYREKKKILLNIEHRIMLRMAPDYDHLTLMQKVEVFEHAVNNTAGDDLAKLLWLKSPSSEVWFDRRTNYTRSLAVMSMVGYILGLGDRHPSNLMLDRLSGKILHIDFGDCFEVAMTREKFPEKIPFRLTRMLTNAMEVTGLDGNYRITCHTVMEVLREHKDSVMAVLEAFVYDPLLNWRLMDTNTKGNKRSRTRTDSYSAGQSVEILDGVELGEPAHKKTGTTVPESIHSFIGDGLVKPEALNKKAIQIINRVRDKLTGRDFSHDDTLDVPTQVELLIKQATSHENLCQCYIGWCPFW
T2 sequence (O00329 with tags, fused parts or gaps limits assumed): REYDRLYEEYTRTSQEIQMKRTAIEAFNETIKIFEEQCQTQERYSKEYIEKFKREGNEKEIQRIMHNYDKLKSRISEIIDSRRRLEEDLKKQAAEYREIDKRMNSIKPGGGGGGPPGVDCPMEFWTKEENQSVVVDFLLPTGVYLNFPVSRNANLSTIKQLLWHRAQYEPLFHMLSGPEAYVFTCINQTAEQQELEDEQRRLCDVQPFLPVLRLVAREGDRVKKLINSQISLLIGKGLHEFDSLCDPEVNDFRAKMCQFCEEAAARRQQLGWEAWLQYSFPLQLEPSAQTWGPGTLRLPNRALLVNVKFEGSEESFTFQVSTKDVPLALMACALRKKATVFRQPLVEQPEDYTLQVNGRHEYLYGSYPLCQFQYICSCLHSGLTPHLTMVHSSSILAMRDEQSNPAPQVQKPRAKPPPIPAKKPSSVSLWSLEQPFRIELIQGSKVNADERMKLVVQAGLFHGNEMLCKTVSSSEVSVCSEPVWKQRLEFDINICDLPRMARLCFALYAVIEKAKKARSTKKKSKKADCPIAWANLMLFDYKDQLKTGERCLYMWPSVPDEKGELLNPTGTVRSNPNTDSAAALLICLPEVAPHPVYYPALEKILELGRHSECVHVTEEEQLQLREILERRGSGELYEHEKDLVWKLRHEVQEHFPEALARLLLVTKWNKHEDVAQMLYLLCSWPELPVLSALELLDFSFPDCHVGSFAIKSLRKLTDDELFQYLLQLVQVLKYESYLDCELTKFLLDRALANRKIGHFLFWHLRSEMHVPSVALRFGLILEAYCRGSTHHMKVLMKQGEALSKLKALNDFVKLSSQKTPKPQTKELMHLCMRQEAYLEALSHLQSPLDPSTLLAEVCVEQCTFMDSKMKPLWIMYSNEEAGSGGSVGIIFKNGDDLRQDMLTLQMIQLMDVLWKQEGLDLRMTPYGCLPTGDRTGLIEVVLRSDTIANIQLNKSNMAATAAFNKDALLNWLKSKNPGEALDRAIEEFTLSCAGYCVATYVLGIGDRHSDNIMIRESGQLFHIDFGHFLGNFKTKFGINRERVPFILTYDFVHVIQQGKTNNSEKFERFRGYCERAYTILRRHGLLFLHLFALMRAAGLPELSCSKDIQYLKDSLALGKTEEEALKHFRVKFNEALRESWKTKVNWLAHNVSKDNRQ
T1 sequence (P42338 with tags, fused parts or gaps limits assumed): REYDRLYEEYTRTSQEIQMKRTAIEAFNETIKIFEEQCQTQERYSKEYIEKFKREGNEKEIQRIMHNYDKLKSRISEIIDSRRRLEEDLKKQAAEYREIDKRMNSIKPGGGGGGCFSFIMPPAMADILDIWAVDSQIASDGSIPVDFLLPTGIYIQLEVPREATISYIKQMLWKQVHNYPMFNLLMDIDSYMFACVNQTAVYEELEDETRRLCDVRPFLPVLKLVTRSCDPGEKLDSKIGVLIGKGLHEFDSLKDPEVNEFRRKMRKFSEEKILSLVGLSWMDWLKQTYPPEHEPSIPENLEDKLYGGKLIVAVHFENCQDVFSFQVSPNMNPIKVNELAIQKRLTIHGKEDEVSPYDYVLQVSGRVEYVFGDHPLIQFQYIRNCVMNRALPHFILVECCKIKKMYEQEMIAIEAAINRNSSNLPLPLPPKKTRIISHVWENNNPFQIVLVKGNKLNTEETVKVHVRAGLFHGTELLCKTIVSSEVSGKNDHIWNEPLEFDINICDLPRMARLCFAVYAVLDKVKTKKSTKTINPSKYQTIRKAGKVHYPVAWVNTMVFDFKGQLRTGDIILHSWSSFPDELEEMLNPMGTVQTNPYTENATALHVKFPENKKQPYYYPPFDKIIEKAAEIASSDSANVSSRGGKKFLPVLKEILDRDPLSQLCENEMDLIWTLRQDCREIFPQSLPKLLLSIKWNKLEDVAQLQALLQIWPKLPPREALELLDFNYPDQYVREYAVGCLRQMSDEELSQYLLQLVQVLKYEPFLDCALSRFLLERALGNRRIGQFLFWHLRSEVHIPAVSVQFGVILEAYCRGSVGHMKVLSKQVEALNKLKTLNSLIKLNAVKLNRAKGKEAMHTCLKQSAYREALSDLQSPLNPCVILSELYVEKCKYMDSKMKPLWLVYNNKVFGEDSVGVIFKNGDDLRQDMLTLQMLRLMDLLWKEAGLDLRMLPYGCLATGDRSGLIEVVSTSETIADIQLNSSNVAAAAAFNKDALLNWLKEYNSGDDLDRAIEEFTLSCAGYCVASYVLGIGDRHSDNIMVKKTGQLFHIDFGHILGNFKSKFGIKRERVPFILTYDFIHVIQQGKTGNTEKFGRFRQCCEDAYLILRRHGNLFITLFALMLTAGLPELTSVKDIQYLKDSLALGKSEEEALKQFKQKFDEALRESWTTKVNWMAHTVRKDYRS
T4 sequence (P42336 with tags, fused parts or gaps limits assumed): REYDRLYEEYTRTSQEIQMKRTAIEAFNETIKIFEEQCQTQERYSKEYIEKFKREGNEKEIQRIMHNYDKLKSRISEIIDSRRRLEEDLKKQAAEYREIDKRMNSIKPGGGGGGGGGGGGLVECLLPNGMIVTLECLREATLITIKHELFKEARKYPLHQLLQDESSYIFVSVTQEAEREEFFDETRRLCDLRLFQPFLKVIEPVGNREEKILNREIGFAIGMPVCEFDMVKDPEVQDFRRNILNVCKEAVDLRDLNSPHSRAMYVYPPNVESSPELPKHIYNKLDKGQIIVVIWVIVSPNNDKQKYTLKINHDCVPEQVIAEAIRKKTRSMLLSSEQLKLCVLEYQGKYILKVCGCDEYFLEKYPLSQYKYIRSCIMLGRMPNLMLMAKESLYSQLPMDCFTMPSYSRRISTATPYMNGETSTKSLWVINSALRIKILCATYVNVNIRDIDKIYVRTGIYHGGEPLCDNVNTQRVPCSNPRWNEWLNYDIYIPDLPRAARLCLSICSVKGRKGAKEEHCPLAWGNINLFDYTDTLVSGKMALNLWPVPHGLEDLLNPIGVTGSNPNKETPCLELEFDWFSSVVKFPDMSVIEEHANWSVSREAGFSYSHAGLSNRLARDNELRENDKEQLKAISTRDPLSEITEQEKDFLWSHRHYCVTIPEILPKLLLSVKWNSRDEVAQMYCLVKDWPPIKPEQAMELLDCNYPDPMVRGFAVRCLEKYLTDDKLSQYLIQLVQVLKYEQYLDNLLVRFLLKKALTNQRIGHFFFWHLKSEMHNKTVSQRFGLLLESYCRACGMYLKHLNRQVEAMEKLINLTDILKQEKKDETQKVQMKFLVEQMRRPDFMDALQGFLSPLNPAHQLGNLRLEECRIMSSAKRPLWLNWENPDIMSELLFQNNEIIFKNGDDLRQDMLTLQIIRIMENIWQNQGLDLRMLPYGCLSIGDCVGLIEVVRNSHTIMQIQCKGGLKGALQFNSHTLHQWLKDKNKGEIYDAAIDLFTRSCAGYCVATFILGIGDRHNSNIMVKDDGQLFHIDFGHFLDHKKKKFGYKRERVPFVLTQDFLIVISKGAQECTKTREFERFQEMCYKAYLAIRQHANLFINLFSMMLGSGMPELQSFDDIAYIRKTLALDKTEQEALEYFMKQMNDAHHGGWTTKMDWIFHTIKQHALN

Structure (SMILES) | IC50 [1] [nM] | IC50 [2] [nM] | IC50 [3] [nM] | IC50 [4] [nM]
CCNc1ncc(-c2ccc3ncc4c(c3c2)n(-c2ccc(N3CC[C@H](O)C3)nc2C)c(=O)n4C)c(OC)n1 [Example 32.9, 8-(2-Ethylamino-4-methoxy-pyrimidin-5-yl)-1-[6-((S)-3-hydroxy-pyrrolidin-1-yl)-2-methyl-pyridin-3-yl]-3-methyl-1,3-dihydro-imidazo[4,5-c]quinolin-2-one] | 385 | 21 | 21 | 27
Cc1nc(N2CC(F)(F)C(F)(F)C2)ccc1-n1c(=O)n(C)c2cnc3ccc(-c4cnc(N)c(CO)c4)cc3c21 [Example 35.4, 8-(6-Amino-5-hydroxymethyl-pyridin-3-yl)-3-methyl-1-[2-methyl-6-(3,3,4,4-tetrafluoro-pyrrolidin-1-yl)-pyridin-3-yl]-1,3-dihydro-imidazo[4,5-c]quinolin-2-one] | 207 | 21 | 66 | 39
COc1cc(-c2ccc3ncc4c(c3c2)n(-c2ccc(N3CC(F)(F)C(F)(F)C3)nc2C)c(=O)n4C)cnc1CO [Example 35.3, 8-(6-Hydroxymethyl-5-methoxy-pyridin-3-yl)-3-methyl-1-[2-methyl-6-(3,3,4,4-tetrafluoro-pyrrolidin-1-yl)-pyridin-3-yl]-1,3-dihydro-imidazo[4,5-c]quinolin-2-one] | 48.7 | 10 | 175 | 14
CCNc1ncc(-c2ccc3ncc4c(c3c2)n(-c2ccc(N3CC(O)C3)nc2C)c(=O)n4C)cn1 [Example 29.7, 8-(2-Ethylamino-pyrimidin-5-yl)-1-[6-(3-hydroxy-azetidin-1-yl)-2-methyl-pyridin-3-yl]-3-methyl-1,3-dihydro-imidazo[4,5-c]quinolin-2-one] | 339 | 24 | 8 | 49
Cc1nc(C(F)(F)F)ccc1-n1c(=O)n(C)c2cnc3ccc(-c4cnc(N)c(CO)c4)cc3c21 [Example 33.5, 8-(6-Amino-5-hydroxymethyl-pyridin-3-yl)-3-methyl-1-(2-methyl-6-trifluoromethyl-pyridin-3-yl)-1,3-dihydro-imidazo[4,5-c]quinolin-2-one] | 56 | 25 | 36 | 41
CNc1ncc(-c2ccc3ncc4c(c3c2)n(-c2ccc(C(F)(F)F)nc2C)c(=O)n4C)cc1COC [Example 33.6, 8-(5-Methoxymethyl-6-methylamino-pyridin-3-yl)-3-methyl-1-(2-methyl-6-trifluoromethyl-pyridin-3-yl)-1,3-dihydro-imidazo[4,5-c]quinolin-2-one] | 62 | 10 | 70 | 27
CCNc1ncc(-c2ccc3ncc4c(c3c2)n(-c2ccc(F)nc2C)c(=O)n4C)cn1 [Example 7.18, 8-(2-Ethylamino-pyrimidin-5-yl)-1-(6-fluoro-2-methyl-pyridin-3-yl)-3-methyl-1,3-dihydro-imidazo[4,5-c]quinolin-2-one] | 321 | 28 | 36 | 65
CNc1ncc(-c2ccc3ncc4c(c3c2)n(-c2ccc(C(C)(C)O)nc2C)c(=O)n4C)cn1 [Example 31.2, 1-[6-(1-Hydroxy-1-methyl-ethyl)-2-methyl-pyridin-3-yl]-3-methyl-8-(2-methylamino-pyrimidin-5-yl)-1,3-dihydro-imidazo[4,5-c]quinolin-2-one] | 105 | 11 | 6 | 26
COCc1cc(-c2ccc3ncc4c(c3c2)n(-c2ccc(C(F)(F)F)nc2C)c(=O)n4C)cnc1N [Example 33.3, 8-(6-Amino-5-methoxymethyl-pyridin-3-yl)-3-methyl-1-(2-methyl-6-trifluoromethyl-pyridin-3-yl)-1,3-dihydro-imidazo[4,5-c]quinolin-2-one] | 22 | 7 | 60 | 12
